Data reported in patent US20260183411A1, “TARGETING SORTILIN” (priority 2024, published 2026).

Assays:
GAPDH mRNA [1] = experiment: GAPDH mRNA knockdown in HEK293 cells overexpressing SORT-1 (RT-qPCR); type: cell-based; details: HEK293 + SORT1 − CQ
Method: (§1) These GAPDH siRNA-peptide conjugates were then evaluated in HEK293 cells and the neuronal cell line, neuro2A.

GAPDH mRNA [2] = experiment: GAPDH mRNA knockdown in differentiated Neuro-2a cells (RT-qPCR); type: cell-based; details: Neuro2a − CQ
Method: as §1

With “Maleimide-(bAla)(Sar)(Sar)(Sar)(Sar)APRWDAPLRDPALRQ(B13)(G48) [Peptide 2-GAPDH6-thiol]” the “GAPDH mRNA % knockdown compared to untreated cells” value (GAPDH mRNA [1]) was 40% and the “GAPDH mRNA % knockdown compared to untreated cells” value (GAPDH mRNA [2]) was 0%.
